Source: patent US20130071936A1, “FRET-BASED ZINC(II) ION INDICATOR” (The Florida State University Research Foundation, Inc., priority 2011, published 2013)
Where two headings read alike, the source gives them in different places. Marks after values point to notes of the source that are not given here.

What was measured:
[1] = test system: mitochondrial zinc(II) in HeLa (S3) cells; assay: Zinc(II) supplementation experiment, fluorescence microscopy; format: cell-based; conditions: indicator 1.8 μM, 50 μM ZnCl2, λex 405 nm, λem 580-680 nm
Procedure: FIGS. 15A and 15B are fluorescence images of HeLa (S3) cells incubated with compound (5) (1.8 μM). FIG. 15A depicts no zinc(II) added, and FIG. 15B depicts fluorescence in the presence of 50 μM ZnCl2. A 405 nm diode laser line was used for excitation. λem 580-680 nm. Scale bar: 10 μm. The DIC images are included in FIGS. 16A and 16B.
FIGS. 16A and 16B are DIC and fluorescence overlay images of HeLa (S3) cells incubated with compound (5) (1.8 μM). FIG. 16A depicts no zinc(II) added, and FIG. 16B depicts emission in the presence of 50 μM ZnCl2. A 405 nm diode laser line was used for excitation. λem 580-680 nm. Scale bar: 10 μm.
See also FIGS. 16A and 16B. […] The addition of zinc(II) ion indicator (5) to the group of very few synthetic indicators that target mitochondrial zinc(II) shall aid the characterization of mitochondrial zinc(II) which is intimately correlated to the chemistry of reactive oxygen species (ROS). See E. Tomat, E. M. Nolan, J. Jaworski and S. J. Lippard, J. Am. Chem. Soc., 2008, 130, 15776; G. Masanta, C. S. Lim, H. J. Kim, J. H. Han, H. M. Kim and B. R. Cho, J. Am. Chem. Soc., 2011, 133, 5698; Y. Qin, P. J. Dittmer, J. G. Park, K. B. Jansen and A. E. Palmer, Proc. Nat. Acad. Sci. USA, 2011, 108, 7351; and S. L. Sensi, D. Ton-That, P. G. Sullivan, E. A. Jonas, K. R. Gee, L. K. Kaczmarek and J. H. Weiss, Proc. Natl. Acad. Sci. U.S.A., 2003, 100, 6157. […]

[2] = Spectroscopic data (absorption, emission, fluorescence quantum yield) in CH3CN; format: physicochemical; conditions: for λabs (A band) / λabs (D band) / λem / ∈/10^3 (A band) / ∈/10^3 (D band): complexes: Zn(ClO4)2 10 equiv.
Procedure: Reagents and solvents were purchased from various commercial sources and used without further purification unless otherwise stated. CH3CN (OmniSolv, EMD) were directly used in titration experiments without purification. All reactions were carried out in oven- or flame-dried glassware. Analytical thin-layer chromatography (TLC) was performed using pre-coated TLC plates with silica gel 60 F254 (EMD) or with aluminum oxide 60 F254 neutral (EMD). Flash column chromatography was performed using 40-63 μm (230-400 mesh ASTM) silica gel (EMD) or alumina (80-200 mesh, pH 9-10, EMD) as the stationary phases. Silica and alumina gel was flame-dried under vacuum to remove absorbed moisture before use. ^1H NMR spectra were recorded at 300 MHz on a Varian Mercury spectrometer. ^13C NMR spectra were recorded at 125 MHz, on a Bruker Avance spectrometer. All chemical shifts were reported in δ units relative to tetramethylsilane. High resolution mass spectra were obtained at the Mass Spectrometry Laboratory at Florida State University. ESI spectra were obtained on a JEOL AccuTOF spectrometer. Spectrophotometric and fluorometric titrations were conducted on a Varian Cary 100 Bio UV-Visible Spectrophotometer and a Varian Cary Eclipse Fluorescence Spectrophotometer, respectively, with a 1-cm standard quartz cell. The fluorescence quantum yield was determined by comparison of the integrated area of corrected emission spectrum with reference of N,N′-di-n-octyl-2,6-di-n-octylamino-1,4,5,8-naphthalenetetracarboxylic acid diimide (φf=0.53 in CH2Cl2) as the reference by the literature method. See Thalacker, C.; Röger, C.; Würthner, F. J. Org.

[3] = test system: mitochondria of HeLa (S3) cells transfected with mCerulean3 TOMM-20; assay: Colocalization by confocal fluorescence microscopy with mCerulean3 TOMM-20; format: cell-based
Procedure: FIGS. 13A through 13F are confocal fluorescence images of living HeLa (S3) cells transfected with mCerulean3 TOMM-20 that were incubated with zinc(II) ion indicator (5) (1.8 μM, A-C) and zinc(II) ion indicator (4) (6.0 μM, D-F) for 30 min. FIGS. 13A (zinc(II) ion indicator (5)) and 13D (zinc(II) ion indicator (4)) depict the green channel, λex 405 nm, λem 425-475 nm. FIGS. 13B (zinc(II) ion indicator (5)) and 13E (zinc(II) ion indicator (4)) depict the red channel, λex 543 nm, λem 580-680 nm. FIGS. 13C (zinc(II) ion indicator (5)) and 13F (zinc(II) ion indicator (4)) depict the merged image. Scale bar: 10 μm.
FIGS. 14A through 14F are confocal fluorescence images of live HeLa (S3) cells transfected with mCer3 TOMM20 that were incubated with FRET acceptor compound (3) (9.0 μM, A-C) and FRET acceptor compound (2) (52 μM, D-F) for 30 min. FIGS. 14A (FRET acceptor compound (3)) and 14D (FRET acceptor compound (2)) depict the green channel, λex 405 nm, λem 425-475 nm. FIGS. 14B (FRET acceptor compound (3)) and […] (FRET acceptor compound (2)) depict the red channel, λex 543 nm, λem 580-680 nm. FIGS. 14C (FRET acceptor compound (3)) and […] (FRET acceptor compound (2)) depict the merged image. Scale bar: 10 μm.
The colocalization properties of red-emitting compounds (2-5) were studied using HeLa (S3) cells transfected with mCerulean3 TOMM-20, a cyan fluorescent protein (CFP) fused with a mitochondrial targeting sequence whose emission is shown in the green channel. See FIG. 13A for emission spectrum from cells incubated with TPP-containing zinc(II) ion indicator (5), and see FIG. 13D for emission spectrum from cells incubated with zinc(II) ion indicator (4). […] The overall intracellular fluorescence intensity from zinc(II) ion indicator (4) is low, which is consistent with the observed weak fluorescence of the NDI fluorophore in aqueous solutions.
The localization properties of (2-5) were determined via costaining experiments using mCerulean3 TOMM-20, a mitochondrial-specific fusion of the cyan fluorescent protein (CFP) mCerulean3. mCerulean3 is a bright monomeric FP with an emission maximum of 475 nm. HeLa S3 cells were seeded onto Bioptechs Delta-T dishes 48 h prior to experimentation, then transfected about 24 h prior to loading the indicator using an Effectene Transfection Reagent Kit (Qiagen) and 1 μg of DNA. A 1:1 mixture of Dulbecco's modified Eagle's medium and Ham's F-12 (Invitrogen) supplemented with 12.5% fetal bovine serum was used as the culture medium. On the day of experimentation cells were rinsed twice with media and incubated with indicator 5 (1.8 μM) for 30 min. Prior to imaging cells were again rinsed twice with media, then provided with 1 mL of fresh media.
All cells were imaged using an Olympus Fluoview FV1000 confocal laser scanning microscope with an Olympus PLAPO 60× oil-immersion objective (NA=1.4). During experimentation cells were maintained at 37° C. and 5.0% CO2 using a Bioptechs Delta T4 Culture Dish Controller. Individual cells were imaged sequentially in two channels, using a 543 nm Helium-Neon laser line to excite the indicator and a 405 nm diode laser line to excite the FP. Cells were selected by the quality of FP expression, as the indicators tended to load homogenously into the cells. All data was collected using FluoView Software (Olympus). Laser power and detection settings were optimized for each image to fill LUTs. A pinhole size of 200 μm was used for each image. […]

[4] = pKa and effect of pH on emission; format: physicochemical
Procedure: FIG. 10 is a graph depicting the effect of pH on emission spectra of zinc(II) ion chelated FRET donor compound (1) (pH=2.7-10.4).
The titration experiments using zinc(II) ion indicator (4) were also carried out in an aqueous/organic mixed solvent (1:9 MOPS buffer (pH 7.2)/CH3CN). […] (FIG. 9). Comparing to the observations in CH3CN, the fluorescence is rather dim. The loss of fluorescence can be explained by the hydrogen bonding interaction between the protic solvent and the carbonyl groups on NDI, which provides a non-radiative deactivation pathway. See F. Würthner, S. Ahmed, C. Thalacker and T. Debaerdemaeker, Chem. Eur. J., 2002, 8, 4742. […] By extension, the fluorescence of zinc(II) ion indicators (4) and (5) would not be affected by the fluctuations of pH within the physiological range.

[5] = CH3CN, data taken from Younes et al. J. Org. Chem. 2009, cited from earlier work
[6] = λex = 400 nm, Zn(ClO4)2 10 equiv.

φf ([2]; λex = 565 nm)	λabs [2] [nm]	∈/10^3 [2]	SMILES	λabs (A band) [2]	λabs (D band) [2]	λem [2] [nm]	∈/10^3 (A band) [2]	∈/10^3 (D band) [2]	other results
0.51^c	607	22 10^3 M^-1 cm^-1	COCCCNc1cc2c3c(c(NCCCOC)cc4c3c1C(=O)N(CCCOC)C4=O)C(=O)N(CCCOC)C2=O [Compound (2)]			638			
	345	34 10^3 M^-1 cm^-1	COc1ccc(/C=C/c2ccc(-c3ccc(C)cn3)nc2)cc1 [(1), 5-(4-methoxystyryl)-5′-methyl-2,2′-bipyridine]			428			φf ([2]; λex = 365 nm): 0.28^a; pKa [4]: 4.6
0.48^c	607	23 10^3 M^-1 cm^-1	COCCCNc1cc2c3c(c(NCCCCC[P+](c4ccccc4)(c4ccccc4)c4ccccc4)cc4c3c1C(=O)N(CCCOC)C4=O)C(=O)N(CCCOC)C2=O [Compound (3)]			639			

Second part, the molecule before the results:

SMILES	φf ([2]; λex = 565 nm)	λabs [2] [nm]	∈/10^3 [2]	λabs (A band) [2]	λabs (D band) [2]	λem [2] [nm]	∈/10^3 (A band) [2]	∈/10^3 (D band) [2]	other results
COCCCN1C(=O)c2cc(NCCOc3ccc(/C=C/c4ccc(-c5ccc(COCCOCCOC)cn5)nc4)cc3)c3c4c(cc(NCCCCC[P+](c5ccccc5)(c5ccccc5)c5ccccc5)c(c24)C1=O)C(=O)N(CCCOC)C3=O.[I-] [Compound (5)]	0.28^c			602 (A) nm	347 (D) nm	633	23 10^3 M^-1 cm^-1	81 10^3 M^-1 cm^-1	red channel fluorescence upon addition of supplemental zinc(II) in the growth media [1]: increase in intramolecular fluorescence; colocalization with mitochondrial CFP (mCerulean3 TOMM-20) ([3]; 30 min incubation, (5) 1.8 μM, (4) 6.0 μM, (3) 9.0 μM, (2) 52 μM): localizes selectively in mitochondria; overall intracellular fluorescence intensity ([3]; red channel λex 543 nm, λem 580-680 nm): surprisingly strong intracellular fluorescence
COCCCNc1cc2c3c(c(NCCOc4ccc(/C=C/c5ccc(-c6ccc(COCCOCCOC)cn6)nc5)cc4)cc4c3c1C(=O)N(CCCOC)C4=O)C(=O)N(CCCOC)C2=O.[Zn+2] [[Zn(4)]^2+]				600 (A) nm	360 (D) nm	633	21 10^3 M^-1 cm^-1	55 10^3 M^-1 cm^-1	φf [2, 6]: 0.31^e
COc1ccc(/C=C/c2ccc(-c3ccc(C)cn3)nc2)cc1.[Zn+2] [[Zn(1)]^2+]									φf ([5]; λex = 365 nm): 0.46^a; λabs [5]: 374 nm; λem [5]: 528 nm; ∈/10^3 [5]: 28 10^3 M^-1 cm^-1; change of fluorescence intensity with pH ([4]; range of pH 6.0-9.0, intensity at 460 nm, λex 380 nm): little change
COCCCN1C(=O)c2cc(NCCOc3ccc(/C=C/c4ccc(-c5ccc(COCCOCCOC)cn5)nc4)cc3)c3c4c(cc(NCCCCC[P+](c5ccccc5)(c5ccccc5)c5ccccc5)c(c24)C1=O)C(=O)N(CCCOC)C3=O.I.[Zn+2] [[Zn(5)]^2+]				602 (A) nm	363 (D) nm	633	21 10^3 M^-1 cm^-1	67 10^3 M^-1 cm^-1	φf [2, 6]: 0.29^e
